{"source": "patent EP3010915B1", "about": "(priority 2013, dated 2014)", "key": {"[1]": {"target": "T1, LSD1 (Homo sapiens, UniProt O60341)", "T1 construct": "purchased Cayman Chemical Company 700120", "format": "biochemical"}, "[2]": {"test_system": "heme oxygenase 1 (HMOX1)", "assay": "Expression array experiments", "format": "cell-based", "conditions": "multiple cell lines; data not shown", "procedure": "As HMOX1 is known to be regulated by H3 methylation in the promoter (Krieg, A. J., et al. Mol Cell Biol 2010, 30 (1), 344-53), the effect of the test compounds on HMOX1 expression in T-47D cells was determined (see Tables 6 and 7)."}}, "data": [{"compound": "Cc1cn(C(=O)c2cccc(S(=O)(=O)N3CCOCC3)c2)nc1-c1cc(Cl)ccc1O", "note": "[Compound 37, (3-(5-chloro-2-hydroxyphenyl)-4-methyl-1H-pyrazol-1-yl)(3-(morpholinosulfonyl)phenyl)methanone]", "values": [{"measurement": "IC50", "setting": "[1]", "result": "> 3", "unit": "µM"}]}, {"compound": "O=C(NNC(=O)c1cc(S(=O)(=O)N2CCOCC2)ccc1F)c1cccc(Cl)c1", "note": "[Compound 7]", "values": [{"measurement": "IC50", "setting": "[1]", "result": "> 3", "unit": "µM"}]}, {"compound": "C/C(=N\\NC(=O)c1cnc(Cl)c(Br)c1)c1cc(Cl)ccc1O", "note": "[Compound 19]", "values": [{"measurement": "IC50", "setting": "[1]", "result": "> 3", "unit": "µM"}]}, {"compound": "C/C(=N\\NC(=O)c1cccc(S(=O)(=O)N2CCOCC2)c1)c1cccc(Cl)c1F", "note": "[Compound 13]", "values": [{"measurement": "IC50", "setting": "[1]", "result": "> 3", "unit": "µM"}]}, {"compound": "C/C(=N\\NC(=O)c1cccc(S(=O)(=O)N2CCOCC2)c1)c1cc(Cl)ccc1[N+](=O)[O-]", "note": "[Compound 32, (E)-N'-(1-(5-chloro-2-nitrophenyl)ethylidene)-3-(morpholinosulfonyl)benzohydrazide]", "values": [{"measurement": "IC50", "setting": "[1]", "result": "> 3", "unit": "µM"}]}, {"compound": "C/C(=N\\NC(=O)c1cccc(S(=O)(=O)N2CCOCC2)c1)c1ccnc(Cl)c1", "note": "[Compound 15]", "values": [{"measurement": "IC50", "setting": "[1]", "result": "> 3", "unit": "µM"}]}, {"compound": "C/C(=N\\NC(=O)c1cncc(Cl)c1)c1cc(Cl)ccc1O", "note": "[Compound 20]", "values": [{"measurement": "IC50", "setting": "[1]", "result": "> 3", "unit": "µM"}]}, {"compound": "CC/C(=N\\NC(=O)c1cccc(S(=O)(=O)N2CCOCC2)c1)c1cc(Cl)ccc1O", "note": "[Compound 21, (E)-N'-(1-(5-CHLORO-2-HYDROXYPHENYL)PROPYLIDENE)-3-(MORPHOLINOSULFONYL)BENZOHYDRAZIDE]", "values": [{"measurement": "IC50", "setting": "[1]", "result": "> 3", "unit": "µM"}]}, {"compound": "C/C(=N\\NC(=O)c1ccccc1S(=O)(=O)N1CCOCC1)c1cc(Cl)ccc1O", "note": "[Compound 28, (E)-N'-(1-(5-chloro-2-hydroxyphenyl)ethylidene)-2-(morpholinosulfonyl)benzohydrazide]", "values": [{"measurement": "IC50", "setting": "[1]", "result": "> 3", "unit": "µM"}]}, {"compound": "COc1ccc(Cl)cc1C(=O)NNC(=O)c1cc(S(=O)(=O)N2CCOCC2)ccc1F", "note": "[Compound 6]", "values": [{"measurement": "IC50", "setting": "[1]", "result": "> 3", "unit": "µM"}]}, {"compound": "C/C(=N\\NC(=O)c1cccc(S(=O)(=O)N2CCOCC2)c1)c1cc(Cl)ccc1F", "note": "[Compound 27, (E)-N'-(1-(5-chloro-2-fluorophenyl)ethylidene)-3-(morpholinosulfonyl)benzohydrazide]", "values": [{"measurement": "IC50", "setting": "[1]", "result": "> 3", "unit": "µM"}]}, {"compound": "C/C(=N\\NC(=O)c1cccc(S(=O)(=O)N2CCOCC2)c1)c1cccnc1", "note": "[Compound 22]", "values": [{"measurement": "IC50", "setting": "[1]", "result": "> 3", "unit": "µM"}]}, {"compound": "C/C(=N\\NC(=O)c1ccccc1)c1c(O)cccc1O", "note": "[Compound 14]", "values": [{"measurement": "IC50", "setting": "[1]", "result": "> 3", "unit": "µM"}]}, {"compound": "C/C(=N\\NC(=O)c1ccc(Cl)c(Br)c1)c1cc(Cl)ccc1O", "note": "[Compound 17]", "values": [{"measurement": "IC50", "setting": "[1]", "result": "> 3", "unit": "µM"}]}, {"compound": "C/C(=N\\NC(=O)c1cccc(S(=O)(=O)N2CCOCC2)c1)c1cc(Cl)ccc1O", "note": "[Compound 12, (E)-N'-(1-(5-chloro-2-hydroxyphenyl)ethylidene)-3-(morpholinosulfonyl)benzohydrazide]", "values": [{"measurement": "transcriptional changes, HMOX1", "setting": "[2]", "result": "one of the most consistently up-regulated genes"}, {"measurement": "IC50", "setting": "[1]", "result": 0.013, "unit": "µM"}]}, {"compound": "CCN(CC)S(=O)(=O)c1ccc(F)c(C(=O)NNC(=O)c2ccc(C)cc2)c1", "note": "[Compound 8]", "values": [{"measurement": "IC50", "setting": "[1]", "result": "> 3", "unit": "µM"}]}, {"compound": "C/C(=N\\NC(=O)c1cccc(S(=O)(=O)N2CCOCC2)c1)c1cc(Cl)ccc1Cl", "note": "[Compound 16]", "values": [{"measurement": "IC50", "setting": "[1]", "result": "> 3", "unit": "µM"}]}]}
